# Reference: patent publication US20240109972A1, “ANTIBODY AND TAXANE COMBINATION THERAPY” (Genmab A/S, priority 2020, published 2024)
# Test system: metastatic NSCLC
# Assay: GEN1046 in combination with docetaxel in metastatic NSCLC subjects, efficacy (RECIST v1.1)
# Assay type: in vivo, human
# Conditions: six subjects dosed with GEN1046 and 75 mg/m^2 Docetaxel
# Experimental: Docetaxel was administered at a dose of 55 mg/m^2 or 75 mg/m^2 depending on the number of prior Dose Limiting Toxicities observed. The maximum tested dose of docetaxel was be 75 mg/m^2.
# The following inclusion criteria applied to the combination arm (NSCLC): GEN1046 in combination with docetaxel: • NSCLC subjects of any histology may be enrolled. Subjects with a histological or cytological diagnosis of non-squamous NSCLC must not have an EGFR-sensitizing mutation and/or ALK translocation/ROS1 rearrangement. EGFR sensitizing mutations are those mutations that are amenable to treatment with an approved TKI. Documentation of EGFR and ALK status should be available per local assessment.
# In one of the six patients the first post-baseline scan was indicative of response according to RECIST Criteria v1.1.
substance,measurement,value
"GEN1046: PD-L1×4-1BB bispecific antibody: PD-L1-547-FEAL combined with CD137-009-HC7LC2-FEAR (SEQ ID NOs: 1, 5, 21, 19; 8, 12, 22, 20)",Patients whose first post-baseline scan was indicative of response (RECIST v1.1),one
